Entries after “also recorded” stand apart in the source; their conditions may differ.
Columns and labels:
[1] = test system: DNBS-induced colitis mice; test: DNBS-induced colitis, body weight and colon weight/colon length ratio; assay type: in vivo, mouse
Protocol: (§1) Cannabigerol (CBG), cannabichromene (CBC) and tetrahydrocannabivarin (THCV) were dissolved in ethanol/Tween20/saline. Animals were placed in groups and administered with test article (60 μl per mouse) via IP once daily. Treatment started 3 days before DNBS administration for the preventative treatment experiments or 1 day after DNBS administration for the curative treatments. Test article was administered daily until the sacrifice of the animals, 3 days after DNBS treatment. THCV was only tested for a curative effect.
(§2) Colitis was induced in mice by the intra-colonic administration of DNBS. Briefly, mice were anesthetized and DNBS (8 mg/mouse) was inserted into the colon using a polyethylene catheter (1 mm in diameter) via the rectum (4.5 cm from the anus). Three days after DNBS administration, all animals were euthanized by asphyxiation with CO2. The abdomen was opened by a midline incision and the colon removed, isolated from surrounding tissues, opened along the anti-mesenteric border, rinsed, weighed, length measured, and processed for evaluations.
The colon weight/colon length ratio activity were determined as index of inflammation. Body weight was also evaluated.

[2] = test system: inducible nitric oxide synthase (iNOS); test: iNOS expression in full-thickness colons by western blot, DNBS-induced colitis; assay type: in vivo, mouse; details: DNBS-treated mice, FIG. 11
Protocol: as §1, §2
iNOS expression was measured in full-thickness colons from control and DNBS-treated mice by western blot analysis.

[3] = test system: LPS-stimulated nitrite levels in mouse peritoneal macrophages; test: Nitrites measurement in medium of LPS-stimulated macrophages; assay type: cell-based; details: non-cytotoxic concentrations (0.1-10 pM), 30 min pre-treatment, then LPS 1 μg/ml 18 hours, FIG. 3 and 4
Protocol: (§3) Briefly, to evoke the production of peritoneal exudates rich in macrophages, mice were injected intraperitoneally (i.p.) with 1 ml of 10% sterile thioglycollate (Sigma, Milan, Italy). After 4 days, mice were euthanized and peritoneal macrophages were collected and seeded in appropriate plates for performing in vitro experiments.
Peritoneal macrophages were cultured in Dulbecco's modified Eagle's medium (DMEM) supplemented with 10% fetal bovine serum. […] The response in macrophages was measured after 18 h LPS incubation.
Nitrites, stable metabolites of NO, were measured in macrophages medium as previously described. Macrophages (5×10^5 cells per well seeded in a 24-well plate) were incubated with test article ([…]) for 30 min, and subsequently with LPS (1 μg/ml) for 18 hours.
The test articles were used at non-cytotoxic concentrations as a pre-treatment for 30 min before LPS-stimulation.

[4] = test system: mouse peritoneal macrophages; test: Cytotoxicity assays (MTT cell respiration and neutral red uptake); assay type: cell-based; details: isolated phytocannabinoids, 24 hours incubation, highest 10 μM concentration, FIG. 1
Protocol: as §3, with “Peritoneal macrophages were obtained from mice as previously described by Rossi et al. (Rossi et al. 2010). Briefly,” for “Briefly,”
Peritoneal macrophages were cultured in Dulbecco's modified Eagle's medium (DMEM) supplemented with 10% fetal bovine serum. The inflammatory response in peritoneal macrophages was induced by lipopolysaccharide (LPS) from Escherichia coli serotype 0111:B4 (1 μg/ml). The response in macrophages was measured after 18 h LPS incubation.
Cell viability was assessed by evaluating cell respiration as well as neutral red (NR) uptake. Cell respiration was assessed by the mitochondrial-dependent reduction of 3-(4,5-dimethylthiazol-2-yl)-2,5-diphenyltetrazolium bromide (MTT) to formazan. After incubation with one of the phytocannabinoids for 24 hours, macrophages (1×10^5 cells per well seeded in a 96-well plate) were incubated with MTT (250 μg/ml) for 1 h.
The extent of reduction of MTT to formazan was quantitated by measuring the optical density at 490 nm (iMark™ microplate assorbance reader, BioRad). […]

[5] = test system: DNBS model of intestinal bowel disease in mice; details: cited from earlier work
[6] = post-treatment (curative), IP once daily from 1 day after DNBS
[7] = pre-treatment (preventative), IP once daily from 3 days before DNBS
[8] = treatment after induction of colitis (curative), IP once daily from 1 day after DNBS

Row | Structure (SMILES) | colon weight:colon length ratio [1, 6] | body weight (decrease associated with the inflammatory response) [1, 7] | colon weight:colon length ratio [1, 7] | body weight (decrease associated with the inflammatory response) [1, 8] | level of expression of iNOS in colonic tissues [2] | LPS-stimulated nitrite levels [3] | cytotoxicity / cell viability [4] | anti-inflammatory effect in DNBS model [5]
1 | CCCCCc1cc(O)c(C/C=C(\C)CCC=C(C)C)c(O)c1 [CBG, Cannabigerol] | significant (p<0.05) reduction | highly statistically significant (p<0.001) prevention of the decrease in bodyweight | significant (p<0.05) reduction | did however not result in a decrease in body weight | statistically significantly (p<0.05) lower | significantly reduced; also recorded: reduce LPS-stimulated nitrite production |  | 
2 | C=C(C)[C@@H]1CCC(C)=C[C@H]1c1c(O)cc(CCC)cc1O [CBDV, Cannabidivarin] |  |  |  |  |  | reduce LPS-stimulated nitrite production |  | 
3 | CCCCCc1cc(O)c2c(c1)OC(C)(CCC=C(C)C)C=C2 (centres unmarked) [CBC, Cannabichromene] | decrease in the colon weight:length ration however this was not as statistically significant | significant (p<0.05) prevention of the decrease in bodyweight | significant (p<0.05) reduction | did not however result in a decrease in body weight | did not show a reduction | reduce LPS-stimulated nitrite production | significantly reduced cell viability | 
4 | C=C(C)[C@@H]1CCC(C)=C[C@H]1c1c(O)cc(CCCCC)cc1O [CBD, Cannabidiol] |  |  |  |  |  |  |  | anti-inflammatory effect
5 | CCCc1cc(O)c2c(c1)OC(C)(C)[C@@H]1CCC(C)=C[C@@H]21 [THCV, Tetrahydrocannabivarin] | significant (p<0.05) reduction |  |  | prevention of the decrease in bodyweight that is associated with the inflammatory response, however this decrease was not statistically significant | statistically significantly (p<0.001) lower | significantly reduced; also recorded: reduce LPS-stimulated nitrite production | significantly reduced cell viability | 
